From patent US8450093B1, “Adaptive engineering of clostridium for increased butanol production” (The Ohio State University, priority 2010, dated 2013)

Key:
[1] = tested on: C. acetobutylicum ATCC 55025 (parental strain)
Protocol: (§1) Butanol tolerances of different strains are investigated and compared according to the maximal specific growth rates achieved under the challenge of different concentrations of butanol. Seed cultures are prepared the same way as those used for fermentor fermentation. Then, seeds of different strains are inoculated into 10 ml of CGM medium in serum tubes supplemented with different concentrations of butanol. The tubes are incubated at 37° C. and optical densities (OD600) are measured every 2 h. Growth curves may be drawn according to the OD600 data. Maximal specific growth rates (h^−1) of different strains under different butanol concentrations may be calculated based on the growth curves.

ATCC 824 = details: 12 g/L butanol
Protocol: as §1

NCIMB 8052 = details: 12 g/L butanol
Protocol: as §1

JB200 = details: CGM medium, 37° C., OD600
Protocol: as §1

BA 101 = details: 12 g/L butanol
Protocol: as §1

Substance: butanol
- butanol concentration above which cell growth stopped ([1]; CGM medium, 37° C., OD600): higher than 12 g/L
- butanol concentration at which growth usually stops (cells lysed) ([1]; general statement, parental strain): 10-12 g/L
- growth in the presence of butanol (ATCC 824): none of them could grow
- growth in the presence of butanol (NCIMB 8052): none of them could grow
- butanol concentration at which cells still grew (JB200): 16 g/L
- growth in the presence of butanol (BA 101): none of them could grow
